From ChEMBL document CHEMBL5537201, “Discovery of Unique Bis-Substituted Aromatic Amide Derivatives as Novel Highly Potent Antibiotics for Combating Methicillin-Resistant Staphylococcus aureus (MRSA)” (J Med Chem, 2024)
In brackets after ≈: the same amount, converted by molar mass. Activity calls are given as the source filed them. The rule behind the calls is not given here.

Experiments:
Staphylococcus aureus [1] = assay: Antimicrobial activity against methicillin resistant Staphylococcus aureus clinical isolate MRS108 assessed as reduction in bacterial growth incubated for 24 hrs by two-fold broth dilution method; type: functional
Staphylococcus aureus [2] = assay: Upregulation of ABC transport family genes in Staphylococcus aureus ATCC6538 at 5 ug/ml incubated for 2 hrs by RNA sequencing analysis; type: functional; conditions: dose 5.0 µg/ml
Staphylococcus aureus [3] = assay: Antimicrobial activity against Staphylococcus aureus ATCC6538 assessed as proton dynamic dissipation at pH 5 to 11; type: functional, organism-based
[4] = Hemolytic activity in rabbit Red blood cell assessed as hemolysis incubated for 1 hr by two-fold microdilution method; type: toxicity, cell-based, Oryctolagus cuniculus, Erythrocyte; conditions: red blood cells (erythrocytes)
[5] = Toxicity in BALB/c mouse assessed as as change in ALT level at 25 to 50 mg/kg, iv; type: organism-based; conditions: in vivo, dose 25-50 mg/kg
Staphylococcus aureus [6] = assay: Antibacterial activity against methicillin-resistant Staphylococcus aureus clinical isolate MRS153 infected in C57BL/6N mouse model assessed as infiltration of inflammatory cells at 3.125 to 12.5 mg/kg, iv; type: functional, organism-based; conditions: dose 3.125-12.5 mg/kg
Staphylococcus aureus [7] = assay: Binding affinity to methicillin resistant Staphylococcus aureus clinical isolate MRS153 Phosphatidylglycerol assessed as change in MIC at upto 256 ug/ml measured after 22 hrs; conditions: dose <= 256.0 µg/ml
Cell membrane [8] = assay: Induction of cytoplasmic membrane depolarization in methicillin resistant Staphylococcus aureus clinical isolate MRS153 assessed as increase in fluorescence intensity measured upto 120 mins by DiSC3(5) dye based fluorescence method; type: cell membranes
Staphylococcus aureus [9] = assay: Upregulation of redox gene expression in Staphylococcus aureus ATCC6538 at 5 ug/ml incubated for 2 hrs by RNA sequencing analysis; type: functional, organism-based; conditions: dose 5.0 µg/ml
Staphylococcus aureus [10] = assay: Antimicrobial activity against Staphylococcus aureus ATCC6538 assessed as reduction in bacterial growth incubated for 24 hrs by two-fold broth dilution method; type: functional
Streptomyces albus = assay: Antimicrobial activity against Streptomyces albus SHBC D11158 assessed as reduction in bacterial growth incubated for 24 hrs by two-fold broth dilution method; type: functional
Cell membrane [11] = assay: Induction of Outer membrane disruption in Staphylococcus aureus ATCC6538 assessed as […] in fluorescence intensity measured upto 30 mins by NPN dye based fluorescence analysis; type: cell membranes
Cell membrane [12] = assay: Disruption of cell membrane integrity in Staphylococcus aureus ATCC6538 assessed as increase in fluorescence intensity at 1 to 26 times MIC measured upto 36 mins ethidium bromide uptake assay; type: cell membranes
Peptidoglycan = assay: Binding affinity to methicillin resistant Staphylococcus aureus clinical isolate MRS153 peptidoglycan assessed as change in MIC at upto 256 ug/ml measured after 22 hrs; conditions: dose <= 256.0 µg/ml
Staphylococcus aureus [13] = assay: Antimicrobial activity against vancomycin-resistant Staphylococcus aureus assessed as reduction in bacterial growth incubated for 24 hrs by two-fold broth dilution method; type: functional
Cell membrane [14] = assay: Disruption of cell membrane integrity in methicillin resistant Staphylococcus aureus clinical isolate MRS153 assessed as increase in fluorescence intensity at 1 to 26 times MIC measured upto 36 mins ethidium bromide uptake assay; type: cell membranes
Staphylococcus aureus [15] = assay: Antimicrobial activity against methicillin resistant Staphylococcus aureus clinical isolate MRS23 assessed as reduction in bacterial growth incubated for 24 hrs by two-fold broth dilution method; type: functional
Staphylococcus aureus [16] = assay: Antimicrobial activity against methicillin resistant Staphylococcus aureus clinical isolate MRS1 assessed as reduction in bacterial growth incubated for 24 hrs by two-fold broth dilution method; type: functional
Staphylococcus aureus [17] = assay: Antibacterial activity against methicillin-resistant Staphylococcus aureus clinical isolate MRS153 infected in C57BL/6N mouse model assessed as improvement in survival rate at 3.125 to 12.5 mg/kg, iv administered as single dose measured for 7 days; type: functional, organism-based; conditions: dose 3.125-12.5 mg/kg, time 7.0 day
Staphylococcus aureus [18] = assay: Bactericidal activity against methicillin-resistant Staphylococcus aureus clinical isolate MRS97 at 5 ug/ml measured upto 150 mins; type: functional, organism-based; conditions: dose 5.0 µg/ml
Staphylococcus aureus [19] = assay: Antimicrobial activity against Staphylococcus aureus ATCC6538 assessed as increase in ROS levels measured upto 180 mins in presence of 2,2'-bipyridyl and thiourea by H2DCFDA probe based flow cytometry; type: functional, organism-based
Staphylococcus aureus [20] = assay: Antimicrobial activity against Staphylococcus aureus N315 assessed as reduction in bacterial growth incubated for 24 hrs by two-fold broth dilution method; type: functional
Staphylococcus aureus [21] = assay: Bactericidal activity against Staphylococcus aureus ATCC6538 at 5 ug/ml measured upto 150 mins; type: functional, organism-based; conditions: dose 5.0 µg/ml
Staphylococcus aureus [22] = assay: Induction of drug resistance in Staphylococcus aureus ATCC6538 assessed as change in MIC measured after 10 passages; type: functional
Staphylococcus aureus [23] = assay: Antimicrobial activity against methicillin resistant Staphylococcus aureus clinical isolate MRS153 assessed as increase in ROS levels measured upto 90 mins by H2DCFDA probe based flow cytometry; type: functional, organism-based
Cell membrane [24] = assay: Induction of cytoplasmic membrane depolarization in Staphylococcus aureus ATCC6538 assessed as increase in fluorescence intensity measured upto 120 mins by DiSC3(5) dye based fluorescence method; type: cell membranes
Staphylococcus aureus [25] = assay: Induction of membrane morphological changes in Staphylococcus aureus ATCC6538 assessed as cell membrane deformation at 5 times of MIC measured after 0.5 hrs by FE-SEM analysis; type: functional, organism-based
[26] = Toxicity in BALB/c mouse assessed as mouse death at 50 mg/kg, iv measured upto 8 days; type: organism-based; conditions: in vivo, 192 h, time < 8 day
Staphylococcus aureus [27] = assay: Antibiofilm activity against Staphylococcus aureus clinical isolate MRS153 assessed as reduction in biofilm formation at 1 to 32 ug/ml incubated for 20 to 22 hrs by crystal violet staining based analysis; type: functional, organism-based; conditions: dose 1-32 µg/ml, time 20-22 hrs
Staphylococcus aureus [28] = assay: Bactericidal activity against Staphylococcus aureus ATCC6538 assessed as reduction in survival rate at 5 to 10 times MIC measured within 1 hr by colony counting method; type: functional, organism-based
Staphylococcus aureus [29] = assay: Antimicrobial activity against methicillin resistant Staphylococcus aureus clinical isolate MRS273 assessed as reduction in bacterial growth incubated for 24 hrs by two-fold broth dilution method; type: functional
Staphylococcus aureus [30] = assay: Antimicrobial activity against methicillin resistant Staphylococcus aureus clinical isolate MRS153 assessed as proton dynamic dissipation at pH 5 to 11; type: functional, organism-based
Staphylococcus aureus [31] = assay: Antimicrobial activity against Staphylococcus aureus ATCC6538 assessed as membrane fluidity measured after 35 mins; type: functional, organism-based
Staphylococcus aureus [32] = assay: Bactericidal activity against vancomycin-resistant Staphylococcus aureus ATCC6538 measured upto 120 mins by colony counting method; type: functional, organism-based
HeLa = assay: Cytotoxicity against human HeLa cells assessed as reduction in cell viability measured after 24 hrs by CCK-8 method; type: functional, cell-based
Staphylococcus aureus [33] = assay: Antimicrobial activity against methicillin resistant Staphylococcus aureus clinical isolate MRS153 assessed as increase in ROS levels measured upto 180 mins in presence of 2,2'-bipyridyl and thiourea by H2DCFDA probe based flow cytometry; type: functional, organism-based
Cell membrane [34] = assay: Induction of inner membrane permeabilization in Staphylococcus aureus ATCC6538 assessed as increase in […] fluorescence at 5 ug/ml by PI staining based analysis; type: cell membranes; conditions: dose 5.0 µg/ml
Staphylococcus aureus [35] = assay: Bactericidal activity against norfloxacin-resistant Staphylococcus aureus ATCC6538 at 5 ug/ml measured upto 150 mins; type: functional, organism-based; conditions: dose 5.0 µg/ml
[36] = Binding affinity to Staphylococcus aureus ATCC6538 Phosphatidylethanolamine assessed as dissociation constant by ITC analysis

In the case of O=C(CCC(F)(F)F)N(Cc1cc2ccccc2s1)c1cc(-c2noc(C(F)(F)F)n2)ccc1O, the MIC (Staphylococcus aureus [1]) is reported as 1 µg/mL (≈ 1.94 µM), the Activity (Staphylococcus aureus [2]) is reported as “Active” and the Activity (Staphylococcus aureus [3]) is reported as “Active”. For the same molecule, the HC50 at 1 h [4] was 2400 µg/mL, the Activity [5] was “Non-Toxic” and the Activity (Staphylococcus aureus [6]) was “Active”. For the same molecule, the Activity (Staphylococcus aureus [7]) was “inactive”, the Activity (Cell membrane [8]) was “Active” and the Activity (Staphylococcus aureus [9]) was “Active”. For the same molecule, the MIC (Staphylococcus aureus [10]) was 0.25 µg/mL (≈ 0.485 µM), the MIC (Streptomyces albus) was less than 0.5 µg/mL and the Activity (Cell membrane [11]) was “Dose-Dependent Effect”. The Activity (Cell membrane [12]) was “Active”, the Activity (Peptidoglycan) was “inactive” and the MIC (Staphylococcus aureus [13]) was 0.5 µg/mL (≈ 0.97 µM). The Activity (Cell membrane [14]) was “Active”, the MIC (Staphylococcus aureus [15]) was 2 µg/mL (≈ 3.88 µM) and the MIC (Staphylococcus aureus [16]) was 1 µg/mL (≈ 1.94 µM). The Activity (Staphylococcus aureus [17]) was “Active”, the Activity (Staphylococcus aureus [18]) was “Active” and the Activity (Staphylococcus aureus [19]) was “inactive”. The MIC (Staphylococcus aureus [20]) was 0.25 µg/mL (≈ 0.485 µM), the Activity (Staphylococcus aureus [21]) was “Active” and the Activity (Staphylococcus aureus [22]) was “inactive”. The Activity (Staphylococcus aureus [23]) was “Active”, the Activity (Cell membrane [24]) was “Active” and the Activity (Staphylococcus aureus [25]) was “Active”. For the same molecule, the Activity [26] was “Non-Toxic”, the Activity (Staphylococcus aureus [27]) was “Active” and the Activity (Staphylococcus aureus [28]) was “Active”. For the same molecule, the MIC (Staphylococcus aureus [29]) was 1 µg/mL (≈ 1.94 µM), the Activity (Staphylococcus aureus [30]) was “Active” and the Activity (Staphylococcus aureus [31]) was “Active”. The Activity (Staphylococcus aureus [32]) was “Dose-Dependent Effect”, the IC50 (HeLa) was greater than 25 µg/mL and the Activity (Staphylococcus aureus [33]) was “inactive”. The Activity (Cell membrane [34]) was “Active”, the Activity (Staphylococcus aureus [35]) was “Active” and the Kd [36] was 183 µM.
